Patent US20240208898A1, “ENAMINE N-OXIDES: SYNTHESIS AND APPLICATION TO HYPOXIA-RESPONSIVE PRODRUGS AND IMAGING AGENTS” (DANA-FARBER CANCER INSTITUTE, INC., priority 2021, published 2024)

Tested on: series of cancer cell lines
Experiment: In-gel fluorescence labeling profile in a series of cancer cell lines
Type: cell-based
Description: Cells were seeded at a density of 200,000 cells per well in media [2 mL, RPMI (A431, H460, HeLa, Bx-PC3, MDA-MB-231) or DMEM (U251) supplemented with 5% heat-inactivated human serum (Sigma), penicillin (100 units/mL), and streptomycin (0.1 mg/mL)] in 6-well plates. Cells were incubated at 37° C. under ambient atmosphere with 5% CO2. After 24 h, the media was aspirated and replaced with fresh media [1 mL, RPMI (A431, H460, HeLa, Bx-PC3, MDA-MB-231) or DMEM (U251) supplemented with 5% heat-inactivated human serum, penicillin (100 units/mL), and streptomycin (0.1 mg/mL)] containing enamine N-oxide probe (200 mM in ethanol; 10 μM final concentration). Plates were then incubated at 37° C. under ambient (20% pO2) or various oxygenated conditions (5%, 1%, or 0.1% pO2) with 5% CO2. […] The protein concentration was determined by BCA assay following the manufacturer's protocol (Pierce). […] The dried pellet was then resuspended in an SDS solution (50 μL, 1% SDS in 50 mM Tris, pH 8.0), and the protein concentration was determined by BCA assay. […] In-gel fluorescence was visualized by a laser scanner (Typhoon™ FLA 9500, GE) and quantified using ImageJ software. […] Detection was mediated by an anti-rabbit IR680-dye conjugated secondary antibody (LI-COR Biosciences, 925-68071) and imaged using a fluorescence scanner (Odyssey CLx, LI-COR Biosciences).

## C#CCCCCC(F)/C=C/[N+]([O-])(CC)CC (stereo not shown) [probe 39, (E)-N,N-diethyl-3-fluoronon-1-en-8-yn-1-amine oxide]
  labeling profile (hypoxic vs normoxic): hypoxia selectivity
